Results: ChEMBL document CHEMBL5390253, “Discovery of Selective and Potent Macrocyclic CDK9 Inhibitors for the Treatment of Osimertinib-Resistant Non-Small-Cell Lung Cancer” (J Med Chem, 2023)
Converted amounts (≈) assume the structure as drawn. The source made the active and inactive calls. No cut-off for these calls is given here.

Key:
[1] = target: Cyclin-dependent kinase 1/cyclin B1 (Homo sapiens) (UniProt P06493+P14635); assay: Inhibition of CDK1/Cyclin B1 (unknown origin) at 200 nM preincubated for 10 mins followed by substrate addition and measured after 60 mins in presence of ATP by ADP-Glo reagent based assay relative to control; type: protein-complex assay; settings: time 70.0 min
[2] = Induction of apoptosis in human Osimertinib-resistant NCI-H1975 cell assessed as early apoptotic cells at 125 nM measured after 16 hrs in presence of osimertinib by Annexin V-FITC and PI staining based analysis (Rvb =1.78%); type: functional
[3] = Antiproliferative activity against human Osimertinib-resistant NCI-H1975 cell incubated for 72 hrs by MTT assay; type: functional, cell-based; settings: NCI-H1975, 72 h
[4] = target: CDK2/Cyclin A2 (Homo sapiens, UniProt P24941); assay: Inhibition of CDK2/Cyclin A2 (unknown origin) preincubated for 10 mins followed by substrate addition and measured after 60 mins in presence of ATP by ADP-Glo reagent based assay; type: protein-complex assay
[5] = Antitumor activity against patient derived #2566 lung cancer organoid assessed as inhibition of growth measured after 4 days; type: functional, tissue-based; settings: Homo sapiens, 96 h
[6] = target: CDK1/Cyclin E (Homo sapiens) (UniProt P06493+P24864); assay: Inhibition of CDK1/Cyclin E1 (unknown origin) at 200 nM preincubated for 10 mins followed by substrate addition and measured after 60 mins in presence of ATP by ADP-Glo reagent based assay relative to control; type: protein-complex assay; settings: time 70.0 min
[7] = tested on: NCI-H1975; assay: Downregulation of Mcl-1 level in human Osimertinib-resistant NCI-H1975 cell measured after 8 hrs by Western blotting analysis; type: functional, cell-based; settings: dose 0.05-2 µM
[8] = target: Tyrosine-protein kinase JAK2 (Homo sapiens) (UniProt O60674); assay: Inhibition of JAK2 (unknown origin) at 100 nM preincubated for 10 mins followed by substrate addition and measured after 60 mins in presence of ATP by ADP-Glo reagent based assay relative to control; settings: time 70.0 min
[9] = Metabolic stability in rat liver microsomes assessed as half life at 10 uM measured at 5 to 60 mins by LC-MS/MS analysis; type: ADME, Microsome; settings: time 5-60 min
[10] = tested on: NCI-H1975; assay: Downregulation of Bcl-2 level in human Osimertinib-resistant NCI-H1975 cell at 125 nM measured after 16 hrs in presence of osimertinib by Western blot analysis; type: functional, cell-based
[11] = target: Glycogen synthase kinase-3 beta (Homo sapiens) (UniProt P49841); assay: Inhibition of GSK3beta (unknown origin) at 500 nM preincubated for 10 mins followed by substrate addition and measured after 60 mins in presence of ATP by ADP-Glo reagent based assay relative to control; settings: time 70.0 min
[12] = tested on: NCI-H1975; assay: Downregulation of cleaved caspase-3 level in human Osimertinib-resistant NCI-H1975 cell at 125 nM measured after 16 hrs in presence of osimertinib by Western blot analysis; type: functional, cell-based
[13] = Toxicity in ICR mouse assessed as effect on body weight loss at 100 mg/kg, iv measured for 8 to 9 days; type: organism-based; settings: in vivo, time 8-9 day
[14] = target: CDK18/Cyclin Y (Homo sapiens) (UniProt Q07002+Q8ND76); assay: Inhibition of CDK18/cyclin Y (unknown origin) at 200 nM preincubated for 10 mins followed by substrate addition and measured after 60 mins in presence of ATP by ADP-Glo reagent based assay relative to control; type: protein-complex assay; settings: time 70.0 min
[15] = target: CDK6/cyclin D1 (Homo sapiens) (UniProt P24385+Q00534); assay: Inhibition of CDK6/cyclin D1 (unknown origin) at 200 nM preincubated for 10 mins followed by substrate addition and measured after 60 mins in presence of ATP by ADP-Glo reagent based assay relative to control; type: protein-complex assay; settings: time 70.0 min
[16] = Downregulation of Mcl-1 level in human Osimertinib-resistant NCI-H1975 cell at 500 nM measured after 8 hrs by Western blotting analysis relative to control; type: functional
[17] = Antitumor activity against patient derived #0243 lung cancer organoid assessed as inhibition of growth measured after 4 days; type: functional, tissue-based; settings: Homo sapiens, 96 h
[18] = Metabolic stability in human liver microsomes assessed as half life at 10 uM measured at 5 to 60 mins by LC-MS/MS analysis; type: ADME, Microsome; settings: time 5-60 min
[19] = target: Cyclin-dependent kinase 2/cyclin E1 (Homo sapiens) (UniProt P24864+P24941); assay: Inhibition of CDK2/cyclin E1 (unknown origin) at 500 nM preincubated for 10 mins followed by substrate addition and measured after 60 mins in presence of ATP by ADP-Glo reagent based assay relative to control; type: protein-complex assay; settings: time 70.0 min
[20] = tested on: NCI-H1975; assay: Inhibition of colony formation in human Osimertinib-resistant NCI-H1975 cell assessed as inhibition of cell growth at 125 to 2000 nM measured after 2 weeks by crystal violet staining based analysis; type: functional; settings: dose 125-2000 nM
[21] = AUC in Sprague-Dawley rat at 2 mg/kg, iv measured upto 24 hrs; type: ADME, organism-based; set-up: dose 2 mg/kg, time < 24 hrs, route iv; settings: in vivo
[22] = Apparent volume of distribution in Sprague-Dawley rat at 2 mg/kg, iv measured upto 24 hrs; type: ADME, organism-based; settings: in vivo, read-out: Vz
[23] = tested on: NCI-H1975; assay: Induction of apoptosis in human Osimertinib-resistant NCI-H1975 cell assessed as increase in percentage of apoptotic cells measured after 16 hrs by Annexin V-FITC and PI staining based analysis; type: functional; settings: dose 125-2000 nM
[24] = target: CDK2/Cyclin A2 (Homo sapiens) (UniProt P24941+P20248); assay: Inhibition of CDK2/Cyclin A2 (unknown origin) at 200 nM preincubated for 10 mins followed by substrate addition and measured after 60 mins in presence of ATP by ADP-Glo reagent based assay relative to control; type: protein-complex assay; settings: time 70.0 min
[25] = target: Dual specificity protein kinase CLK2 (Homo sapiens) (UniProt P49760); assay: Inhibition of CLK2 (unknown origin) at 100 nM preincubated for 10 mins followed by substrate addition and measured after 60 mins in presence of ATP by ADP-Glo reagent based assay relative to control; settings: time 70.0 min
[26] = Antitumor activity against patient derived #0416 lung cancer organoid assessed as inhibition of growth measured after 4 days; type: functional, tissue-based; settings: Homo sapiens, 96 h
[27] = Induction of apoptosis in human Osimertinib-resistant NCI-H1975 cell assessed as late apoptotic cells at 2000 nM measured after 16 hrs by Annexin V-FITC and PI staining based analysis (reference value: 2.84%); type: functional
[28] = tested on: NCI-H1975; assay: Downregulation of Mcl-1 level in human Osimertinib-resistant NCI-H1975 cell at 500 nM by Western blotting analysis; type: functional, cell-based; settings: time 2-12 hrs, TDE = time-dependent effect
[29] = Solubility of the compound in water at pH 7.4 by shake flask method; type: physicochemical
[30] = Induction of apoptosis in human Osimertinib-resistant NCI-H1975 cell assessed as viable cells at 2000 nM measured after 16 hrs by Annexin V-FITC and PI staining based analysis (reference value: 94.9%); type: functional; settings: read-out: Activity
[31] = Induction of apoptosis in human Osimertinib-resistant NCI-H1975 cell assessed as late apoptotic cells at 125 nM measured after 16 hrs by Annexin V-FITC and PI staining based analysis (Rvb =2.84%); type: functional

Glycogen synthase kinase-3 beta (Homo sapiens), sequence (P49841 whole entry, looked up): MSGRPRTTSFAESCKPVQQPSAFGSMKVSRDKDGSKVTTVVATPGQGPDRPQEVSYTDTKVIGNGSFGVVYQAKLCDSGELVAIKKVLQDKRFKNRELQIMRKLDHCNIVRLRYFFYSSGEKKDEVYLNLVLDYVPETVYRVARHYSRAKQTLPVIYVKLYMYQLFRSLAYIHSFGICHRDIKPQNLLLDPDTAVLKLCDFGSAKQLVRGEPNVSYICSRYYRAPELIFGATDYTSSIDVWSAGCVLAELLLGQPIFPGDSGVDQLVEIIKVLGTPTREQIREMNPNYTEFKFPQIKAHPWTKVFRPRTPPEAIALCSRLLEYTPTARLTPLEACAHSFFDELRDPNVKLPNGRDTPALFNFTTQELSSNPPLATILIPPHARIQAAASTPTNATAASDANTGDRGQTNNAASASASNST
Cyclin-dependent kinase 1/cyclin B1 (Homo sapiens), sequence (P06493 whole entry, looked up): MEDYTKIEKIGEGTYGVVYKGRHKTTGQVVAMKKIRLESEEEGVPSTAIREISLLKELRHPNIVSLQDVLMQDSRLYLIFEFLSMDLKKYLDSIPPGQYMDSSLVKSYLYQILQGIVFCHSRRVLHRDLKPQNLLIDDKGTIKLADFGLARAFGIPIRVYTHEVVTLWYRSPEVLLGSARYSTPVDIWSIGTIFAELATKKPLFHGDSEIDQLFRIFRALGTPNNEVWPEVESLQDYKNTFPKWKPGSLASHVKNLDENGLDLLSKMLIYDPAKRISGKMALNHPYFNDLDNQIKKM
Cyclin-dependent kinase 1/cyclin B1 (Homo sapiens), sequence (P14635 whole entry, looked up): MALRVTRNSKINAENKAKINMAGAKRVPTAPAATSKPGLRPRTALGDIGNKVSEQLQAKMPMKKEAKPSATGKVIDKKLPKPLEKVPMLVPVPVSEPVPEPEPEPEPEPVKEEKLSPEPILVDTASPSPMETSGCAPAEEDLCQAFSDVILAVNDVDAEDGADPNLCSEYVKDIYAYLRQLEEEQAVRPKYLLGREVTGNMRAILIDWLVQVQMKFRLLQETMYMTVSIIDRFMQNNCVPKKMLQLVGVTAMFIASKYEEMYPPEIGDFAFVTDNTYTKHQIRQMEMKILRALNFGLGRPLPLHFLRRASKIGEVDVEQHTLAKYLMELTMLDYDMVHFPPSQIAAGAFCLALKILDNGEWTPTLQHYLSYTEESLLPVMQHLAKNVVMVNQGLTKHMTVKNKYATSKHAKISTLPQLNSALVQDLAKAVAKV
CDK1/Cyclin E (Homo sapiens), sequence (P06493 whole entry, looked up): as the sequence (P06493 whole entry, looked up) above
CDK1/Cyclin E (Homo sapiens), sequence (P24864 whole entry, looked up): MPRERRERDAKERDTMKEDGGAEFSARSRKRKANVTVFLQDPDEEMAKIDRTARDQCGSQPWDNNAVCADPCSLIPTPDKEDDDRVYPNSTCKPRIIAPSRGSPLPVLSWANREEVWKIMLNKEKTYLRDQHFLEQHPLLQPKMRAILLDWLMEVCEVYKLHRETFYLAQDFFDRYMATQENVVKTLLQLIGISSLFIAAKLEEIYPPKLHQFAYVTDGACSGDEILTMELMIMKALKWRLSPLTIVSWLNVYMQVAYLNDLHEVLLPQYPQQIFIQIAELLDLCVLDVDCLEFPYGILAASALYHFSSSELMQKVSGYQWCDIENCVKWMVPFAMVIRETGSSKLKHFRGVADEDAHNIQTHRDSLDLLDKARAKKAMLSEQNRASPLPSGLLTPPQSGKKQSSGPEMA
Tyrosine-protein kinase JAK2 (Homo sapiens), sequence (O60674 whole entry): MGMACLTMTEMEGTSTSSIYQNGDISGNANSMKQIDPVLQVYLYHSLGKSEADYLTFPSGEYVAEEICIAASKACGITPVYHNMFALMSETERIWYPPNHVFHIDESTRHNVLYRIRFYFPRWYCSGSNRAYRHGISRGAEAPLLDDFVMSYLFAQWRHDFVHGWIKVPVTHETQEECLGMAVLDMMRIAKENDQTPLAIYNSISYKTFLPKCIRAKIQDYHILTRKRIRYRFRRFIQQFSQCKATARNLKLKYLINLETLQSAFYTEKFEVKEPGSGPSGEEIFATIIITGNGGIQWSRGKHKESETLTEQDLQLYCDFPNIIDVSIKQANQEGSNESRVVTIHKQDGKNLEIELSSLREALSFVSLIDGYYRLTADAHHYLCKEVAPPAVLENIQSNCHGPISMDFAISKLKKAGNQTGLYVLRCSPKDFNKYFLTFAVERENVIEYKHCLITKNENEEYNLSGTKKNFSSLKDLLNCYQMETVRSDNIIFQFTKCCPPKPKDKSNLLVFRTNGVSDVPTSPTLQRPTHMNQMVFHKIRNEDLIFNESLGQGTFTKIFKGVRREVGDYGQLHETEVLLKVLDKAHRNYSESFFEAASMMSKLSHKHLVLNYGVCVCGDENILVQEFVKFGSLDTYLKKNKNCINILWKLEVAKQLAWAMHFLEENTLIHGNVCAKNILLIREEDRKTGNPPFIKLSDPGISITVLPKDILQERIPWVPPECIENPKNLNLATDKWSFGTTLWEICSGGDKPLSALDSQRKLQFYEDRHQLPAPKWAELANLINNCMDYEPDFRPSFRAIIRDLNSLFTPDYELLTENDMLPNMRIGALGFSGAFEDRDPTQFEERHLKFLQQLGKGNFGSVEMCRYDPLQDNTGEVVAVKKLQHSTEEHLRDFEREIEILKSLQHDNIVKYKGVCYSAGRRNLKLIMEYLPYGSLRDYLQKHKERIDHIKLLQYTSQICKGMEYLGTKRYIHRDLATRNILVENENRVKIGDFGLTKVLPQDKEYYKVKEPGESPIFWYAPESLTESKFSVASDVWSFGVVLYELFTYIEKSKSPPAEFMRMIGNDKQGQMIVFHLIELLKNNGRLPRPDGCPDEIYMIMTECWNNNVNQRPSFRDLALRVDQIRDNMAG
Dual specificity protein kinase CLK2 (Homo sapiens), sequence (P49760 whole entry, looked up): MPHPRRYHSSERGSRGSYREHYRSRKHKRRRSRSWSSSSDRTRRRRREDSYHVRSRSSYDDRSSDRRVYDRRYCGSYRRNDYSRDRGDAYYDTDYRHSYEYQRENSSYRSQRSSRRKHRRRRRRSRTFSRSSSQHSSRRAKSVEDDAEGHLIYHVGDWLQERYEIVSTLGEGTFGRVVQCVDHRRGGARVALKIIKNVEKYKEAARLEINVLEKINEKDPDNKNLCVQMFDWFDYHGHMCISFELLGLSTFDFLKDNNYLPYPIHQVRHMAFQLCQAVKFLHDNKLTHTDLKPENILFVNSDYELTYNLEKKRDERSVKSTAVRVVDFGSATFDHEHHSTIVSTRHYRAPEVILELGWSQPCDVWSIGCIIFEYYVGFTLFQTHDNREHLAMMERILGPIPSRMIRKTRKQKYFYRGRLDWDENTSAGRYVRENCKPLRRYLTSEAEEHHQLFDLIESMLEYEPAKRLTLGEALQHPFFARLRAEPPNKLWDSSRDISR

O=C(NCCN1CCOCC1)c1ccc2cc1OCCCCCCOc1cc(ccc1F)-c1nc(ncc1F)N2
inhibition [1]: 33%
Activity [2]: 3.15%
IC50 [3]: 251 nM
IC50 [4]: 209 nM
IC50 [5]: < 20 nM
inhibition [6]: 16.4%
Activity [7]: Dose-Dependent Effect
inhibition [8]: 23.3%
half-life at 10 µM [9]: 6.8 min
Activity [10]: Active
inhibition [11]: 93.9%
Activity [12]: Active
Activity [13]: Non-Toxic
inhibition [14]: 12%
inhibition [15]: 29.3%
Activity [16]: 90%
IC50 [17]: 120 nM
half-life at 10 µM [18]: 10.7 min
inhibition [19]: 76.1%
inhibition [20]: Active
AUC at 24 h [21]: 1080 ng·h/mL
Vd [22]: 12 L/kg
Activity [23]: Dose-Dependent Effect
inhibition [24]: 39.1%
inhibition [25]: 32.8%
IC50 [26]: 79 nM
Activity [27]: 13.7%
Activity [28]: Tde
solubility thermodynamic [29]: 626 µg/mL (≈ 1130 µM)
viability at 2 µM [30]: 65.5%
Activity [31]: 3.15%
